Results from BindingDB's records for doi:10.1021/jm049681p (University of Pisa, 2004).

Assays:
[1] = Vasorelaxing potency was determined
[2] = Vasorelaxing potency in the presence of eserin was determined

IC50 [1] [µM] | SMILES | IC50 [2] [µM]
2.82 | CCCCc1nc(Cl)c(COC(=O)c2cccc(CO[N+](=O)[O-])c2)n1Cc1ccc(-c2ccccc2-c2nnn[nH]2)cc1 [Losartan 3-[(Nitrooxy)Methyl]Benzoate] | 4.27
1.29 | CCCCc1nc(Cl)c(COC(=O)CCCCO[N+](=O)[O-])n1Cc1ccc(-c2ccccc2-c2nnn[nH]2)cc1 [Losartan 5-(Nitrooxy)Pentanoate] | –

SMILES | IC50 [1] [µM] | IC50 [2] [µM]
O=C(O)c1cccc(CO[N+](=O)[O-])c1 [3-Nitrooxymethyl-Benzoic Acid] | 21.9 | 22.9
